Consider six molecules from the NIST ThermoML archive (doi:10.1016/j.jct.2004.11.007).

For series [1] the following is noted: for vapor or sublimation pressure: Liquid; for Triple point temperature: Crystal.
Series [2] can be described thus: Solid-liquid equilibrium temperature. The conditions noted are these: 100 kPa; Crystal.
Series [3] can be described thus: Molar enthalpy of transition or fusion. Conditions: Crystal; DSC.

± gives the expanded uncertainty stated by the source.

For `CCCCC(C)=O` [2-hexanone], in series [1] (373.15 K), the vapor or sublimation pressure (commonly the equilibrium pressure above the liquid or solid) was 43.8 ± 1.8 kPa. For the same molecule, in series [1], the Triple point temperature was found to be 218.42 ± 2 K. The Solid-liquid equilibrium temperature in series [2] was determined as 215.57 ± 2 K.

With `CCCC(=O)CCC` [4-heptanone], the Triple point temperature in series [1] (visual observation) is listed as 241.77 ± 0.39 K.

As to `CN1CCCC1=O` [N-methylpyrrolidone], the figures for the “vapor or sublimation pressure” value in series [1] (333.15 K) and in series [1] (373.15 K) were 0.5 kPa and 3.6 ± 2.6 kPa, respectively. Moreover, the Triple point temperature in series [1] (visual observation) is recorded as 249.68 ± 0.39 K. In addition, the “Molar enthalpy of transition or fusion” value in series [3] is 2.64 ± 0.0693 kcal/mol.

Consider `CC(C)=O` [acetone], for which, in series [1] (333.15 K), the “vapor or sublimation pressure” value turned out to be 115.7 ± 5.4 kPa.

For the molecule `O=C1CCCC1` [cyclopentanone], the Triple point temperature in series [1] (visual observation) is given as 220.77 ± 0.39 K.

Turning to `CCC(=O)CC` [pentan-3-one], the “vapor or sublimation pressure” value in series [1] (373.15 K) stood at 95.9 ± 4.9 kPa. The Triple point temperature in series [1] (visual observation) stood at 234.36 ± 0.39 K.
